PubChem BioAssay (NCI)
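Grown in 96-well plates, cells were treated for 48 hours with each compound at five concentrations. Insufficient inhibition: endpoint recorded as highest concentration tested. Definition used: TGI = concentration required for complete inhibition of growth.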

Legend:
Assay in all cases: inhibition of tumour cell growth, NCI panel, 48 h
[1] = system: 786-0 renal
[2] = system: A498 renal
[3] = system: A549 NSCLC
[4] = system: ACHN renal
[5] = system: BT-549 breast
[6] = system: CAKI-1 renal
[7] = system: COLO 205 colon
[8] = system: DU-145 prostate
[9] = system: EKVX NSCLC
[10] = system: HCC-2998 colon
[11] = system: HCT-116 colon
[12] = system: HCT-15 colon
[13] = system: HL-60(TB) leukemia
[14] = system: HOP-62 NSCLC
[15] = system: HOP-92 NSCLC
[16] = system: HS 578T breast
[17] = system: HT29 colon
[18] = system: IGROV1 ovarian
[19] = system: K-562 leukemia
[20] = system: KM12 colon
[21] = system: LOX IMVI melanoma
[22] = system: M14 melanoma
[23] = system: MCF7 breast
[24] = system: MDA-MB-231 breast
[25] = system: MDA-MB-435
[26] = system: MDA-N
[27] = system: MOLT-4 leukemia
[28] = system: NCI-H226 lung
[29] = system: NCI-H23 lung
[30] = system: NCI-H460 lung
[31] = system: NCI-H522 lung
[32] = system: NCI/ADR-RES ovarian
[33] = system: OVCAR-3 ovarian
[34] = system: OVCAR-4 ovarian
[35] = system: OVCAR-5 ovarian
[36] = system: OVCAR-8 ovarian
[37] = system: PC-3 prostate
[38] = system: RXF 393 renal
[39] = system: SF-268 CNS
[40] = system: SF-295 CNS
[41] = system: SF-539 CNS
[42] = system: SK-MEL-2 melanoma
[43] = system: SK-MEL-28 melanoma
[44] = system: SK-MEL-5 melanoma
[45] = system: SK-OV-3 ovarian
[46] = system: SN12C renal
[47] = system: SNB-19 CNS
[48] = system: SW-620 colon
[49] = system: T-47D breast
[50] = system: TK-10 renal
[51] = system: U251 CNS
[52] = system: UACC-257 melanoma
[53] = system: UACC-62 melanoma
[54] = system: UO-31 renal
[55] = system: MALME-3M melanoma
[56] = system: RPMI-8226 leukemia
[57] = system: SNB-75 CNS
[58] = system: SR leukemia
[59] = system: CCRF-CEM leukemia

Measured: TGI

O=C1NNC=Nc2ccc(cc2)S(=O)(=O)c2ccc(cc2)N=CNNC1=O
not listed: [55] | [56] | [57] | [58] | [59]
> 100 µM: all other assays above

COC(=O)C(/C(=N/NC(N)=O)C(=O)Nc1ccc(C)cc1)c1nc2ccc([N+](=O)[O-])cc2[nH]c1=O (stereo unspecified)
not listed: [4] | [7] | [8] | [13] | [29] | [47] | [52] | [54] | [59]
> 100 µM: all other assays above

COc1cc2c(cc1OC)C1=Cc3cc(OC)c(OC)cc3C(C)N1C=C2 (stereo unspecified)
not listed: [6] | [21] | [24] | [31] | [34] | [42] | [58]
> 100 µM: all other assays above

CN(C)/N=N/c1nc2c(c(=O)n(C)c(=O)n2C)n1C
not listed: [13] | [15] | [29] | [41]
> 100 µM: all other assays above
